From a melting point compilation (Tetko et al.; mined from patent text by program, amines drawn as free bases though some values may be those of a salt)

First: CCn1c(=N)c(-c2ccc3ccccc3c2)cc2cnc(Nc3ccccc3)nc21
Second: COc1cc2ccccc2cc1NC(=O)Nc1cccc2ccccc12
The melting point of the first is higher: 236 to 242 °C for the first, 155 to 156 °C for the second.

First: CC(=O)OCCSc1nc(C(C)(C)C)nn1C(=O)N(C)C
Second: Cc1nc2c(O[Si](C)(C)C(C)(C)C(C)C)c(CC[C@@H](O)c3ccccc3)c(C(=O)N(C)C)cn2c1C
The melting point of the first is higher: 110 to 112 °C for the first, 56 to 58 °C for the second.

Compared with `CCCCCCCOc1ccc(-c2ccc(OCC(C)CC)nn2)cc1` (stereo unspecified), `CCOC(=O)C(=O)c1ccc(OCCCCCCCCCCCCOc2ccccc2)cc1` is lower in melting point: 91 °C for the first, 58 to 59 °C for the second.

First: Cc1ccc(S(=O)(=O)N2CCC[C@H]2C(=O)N[C@@H](Cc2ccc(OCCN3CCCCCC3)cc2)C(=O)O)cc1
Second: Cc1cc(Nc2ccnc(Nc3ccc(S(=O)(=O)N(CCN4CCCC4)C4CCN(C)CC4)cc3)n2)ccc1F
The melting point of the first is higher: 105 to 107 °C for the first, 93 to 103 °C for the second.

First: Cc1cc(C)cc(S(=O)c2cccc(N)c2C#N)c1 (stereo unspecified)
Second: N#Cc1c(Cl)ccc2cc(Cl)cnc12
The melting point of the first is lower: 190 to 191 °C for the first, 222 °C for the second.

First: Cc1csc(Cc2ccc([N+](=O)[O-])cc2)n1
Second: O=[N+]([O-])c1cccc2c(O)ccnc12
The melting point of the first is lower: 81 to 82 °C for the first, 204 to 206 °C for the second.

Compared with `CCc1nc(C)cn1C(=O)c1c(Cl)cccc1[N+](=O)[O-]`, `CNc1nc(Nc2ccc(S(C)=O)cc2)ncc1[N+](=O)[O-]` (stereo unspecified) is higher in melting point: 116 to 118 °C for the first, 288 °C for the second.

First: CCN(CC)C(=O)c1ccc(Cl)c(C2(C)C(=O)N(Cc3ccc(OC)cc3OC)c3ccc(Cl)cc32)c1 (stereo unspecified)
Second: COc1ccc(CNC(=S)N2C(=O)CC(c3ccc(OC)c(OC4CCCC4)c3)N2C)cc1 (stereo unspecified)
The melting point of the first is higher: 86 °C for the first, 52 to 55 °C for the second.

First: CC(C)Cn1c(CN2CCCS2(=O)=O)nc2c(N)nc3ccccc3c21
Second: Cc1nc2c(N)nc3cc(OCCNC(=O)C(C)C)ccc3c2n1CC(C)C
The melting point of the first is higher: 230 to 232 °C for the first, 205 to 206 °C for the second.

Compared with `CCOC(=O)c1sc(Oc2ccccc2)c2c1CCC(C(OCC)OCC)C2=O` (stereo unspecified), `CCCC1=C(C(=O)OCC)C(c2ccccc2Cl)c2c[nH]nc2N1` (stereo unspecified) is higher in melting point: 73 to 74 °C for the first, 202 to 205 °C for the second.

Compared with `CC(Br)C(C)N1C(=O)C2(OCCCO2)c2cc(S(=O)(=O)N3CCCC3)ccc21` (stereo unspecified), `CC(=O)NCC1CN(c2ccc(N3CC4CCCN(C(=O)CO)C4C3)c(F)c2)C(=O)O1` (stereo unspecified) is lower in melting point: 152 to 153 °C for the first, 102 to 110 °C for the second.

Compared with `O=C(O)Cc1ccc(OCc2ccccc2)c(C(=O)O)c1`, `CCCOc1ccccc1C(=O)Nc1ccccc1C(N)=O` is higher in melting point: 143 to 145 °C for the first, 149 to 150 °C for the second.

First: CCN1c2ncc(CCc3ccc4ccccc4c3)cc2C(=O)N(C)c2ccc(F)nc21
Second: CC(=O)c1ccc(SCCOc2ccc3ccccc3c2)cc1
The melting point of the first is lower: 112 to 114 °C for the first, 151 to 152 °C for the second.

First: NC(=O)c1ccc([N+](=O)[O-])c(C(N)=O)c1
Second: COc1cc(C(=O)Oc2ccccc2C(C)=O)cc([N+](=O)[O-])c1OC
The melting point of the first is higher: 287 to 289 °C for the first, 108 to 109 °C for the second.

First: Cc1cc(-c2nncc3c(C(C)(C)C)c(OCc4ncn(C)n4)nn23)no1
Second: Cc1cc(C)n(-c2cnc(CN(C)C)c(Nc3ccc(Cl)cc3)n2)n1
The melting point of the first is higher: 161 to 164 °C for the first, 112 to 114 °C for the second.

First: COC(=O)C1CCN(CCc2ccc(OC)cc2)CC1
Second: O=C(CNc1ccc(O)cc1)N1CCC(Cc2ccc(F)cc2)CC1
The melting point of the first is lower: 66 to 68 °C for the first, 155 to 157 °C for the second.

First: CC(C)(C)OC(=O)NC[C@H]1CC[C@H](COS(C)(=O)=O)CC1
Second: Cc1nnn2c1CO[C@H]1CN(C(=O)OC(C)(C)C)C[C@@H]12
The melting point of the first is lower: 105 to 107 °C for the first, 195 to 196 °C for the second.

First: CC(C)(C)OC(=O)N[C@@H](Cc1ccc(O)cc1)C(=O)NCC(=O)NCC(=O)O
Second: CC(C)CC(NC(=O)C(NC(=O)OCc1ccccc1)C(C(=O)O)C(C)(C)C)C(=O)NC(CCCCNC(=O)OC(C)(C)C)C(=O)O (stereo unspecified)
The melting point of the first is lower: 92 to 94 °C for the first, 173 to 174 °C for the second.

Compared with `Cc1cc(-n2ccnc2)c2cccc(OCc3c(Cl)ccc(S(=O)(=O)N4CCC[C@H]4C(=O)NCc4ccccn4)c3Cl)c2n1`, `O=C(O)CCCc1cc2nc(Cl)ccc2n1S(=O)(=O)c1cccc(-c2ccccc2)c1` is higher in melting point: 102 °C for the first, 147 to 149 °C for the second.

First: COC(=O)C(C)c1ccc2nc(-c3ccc(Cl)cc3)ccc2c1 (stereo unspecified)
Second: O=S(=O)(Nc1ccc2c(OCc3cccc(-c4ccc(C(F)(F)F)cc4)n3)cccc2c1)C(F)(F)F
The melting point of the first is lower: 114 to 115 °C for the first, 180 to 182 °C for the second.

Compared with `Cc1ccc(-c2[nH]c(-c3c(C)cc(C)cc3C)nc2-c2ccncc2)cc1`, `CC1C=NNc2c(-c3ccc(F)cc3)c(-c3ccncc3)nn21` (stereo unspecified) is lower in melting point: 277 to 279 °C for the first, 204 °C for the second.

Compared with `CC(C)(C)c1cc(C2CCC3SC2CCC3c2cc(C(C)(C)C)c(O)c(C(C)(C)C)c2)cc(C(C)(C)C)c1O` (stereo unspecified), `CC(C)(C)c1cc(CCC2(CCc3cc(C(C)(C)C)c(O)c(C(C)(C)C)c3)NC(=O)NC2=O)cc(C(C)(C)C)c1O` is lower in melting point: 247 to 250 °C for the first, 218 to 220 °C for the second.

First: CC(=O)OC1CCC2(C)C(CCC3=C4C(=O)CC(C(C)CCC=C(C)C)C4(C)CCC32)C1 (stereo unspecified)
Second: CNC1([C@@H]2CCN(c3ccc4c(=O)c(C(=O)O)cn([C@@H]5C[C@@H]5F)c4c3OC)C2)CC1
The melting point of the first is lower: 129 to 130 °C for the first, 213 to 215 °C for the second.

Compared with `Cc1ccc(C2(c3ccccc3)OCc3c2cnc(C)c3OCC(=O)O)cc1` (stereo unspecified), `Cc1oc(-c2ccccc2)nc1COc1ccc(COc2ccc(C(=O)c3ccccc3)c(O)c2)cc1` is lower in melting point: 223 °C for the first, 160 to 161 °C for the second.

Compared with `CSc1nc(-c2ccc(F)cc2)c(-c2ccnc(OC(C)C)c2)[nH]1`, `Cc1cc(-c2ccc(S(C)(=O)=O)cc2)n(-c2ccc(F)cc2)c1C` is higher in melting point: 141 °C for the first, 159 to 162 °C for the second.

`CCCc1nc2ccnn2c(O)c1Cc1ccc(-c2ccccc2C(=O)O)cc1` and `CC(C)(CO)NS(=O)(=O)c1cccc(NC(=O)c2cnn3c(C(F)F)cc(-c4ccc(C(F)(F)F)cc4)nc23)c1` cannot be ordered by melting point: 230 to 240 °C for the first, 232 °C for the second.

First: O=C1NN=C(c2ccccc2)c2c[nH]c3cccc1c23
Second: Cc1cccc(C)c1NC(=O)/C=C1\SCC(=O)N1c1ccccc1
The melting point of the first is lower: 177 to 179 °C for the first, 228 °C for the second.

First: Cc1cccc(C(O)c2ocnc2C)c1 (stereo unspecified)
Second: Cc1nc2ccccc2nc1Oc1ccc(O)cc1
The melting point of the first is lower: 76.5 to 77.5 °C for the first, 175 to 178 °C for the second.

Compared with `CCOC(=O)c1cnn2c1c(NC1CCCCCC1)nc1ccccc12`, `CCOC(=O)C1=COc2ccc(O)cc2O1` is higher in melting point: 114 to 115 °C for the first, 160 °C for the second.

First: Cc1n[nH]c2c1C[C@@H]1CN(C)CC[C@H]1C2 (relative stereo)
Second: CC1CC(=O)NN=C1c1ccc(N2CCNCC2)c(F)c1 (stereo unspecified)
The melting point of the first is lower: 160 to 162 °C for the first, 172 to 174 °C for the second.

First: CC(C)c1cc2ncnn2nc1OCCOCCN1CCN(C(c2ccccc2)c2ccccc2)CC1
Second: O=C(CCN1CCN(Cc2ccccc2)CC1)c1ccc2oc3ccccc3c2c1
The melting point of the first is lower: 119 to 120 °C for the first, 135 to 136 °C for the second.

First: CC(C)NC(=O)c1nc(-c2ccccc2)c(-c2ccc(=O)n(C(C)C)n2)s1
Second: Cc1ccccc1C(=O)N[C@@H](CC(C)C)C(=O)N[C@@H](C(C)C)[C@@H](O)c1c(-c2ccccc2)c1=O
The melting point of the first is higher: 131 to 132 °C for the first, 101 to 105 °C for the second.

First: NC(=O)C(OCC1c2ccccc2-c2ccccc21)c1ccc(C(=O)O)cc1 (stereo unspecified)
Second: CC1(C)c2ccc([N+](=O)[O-])cc2[C@@H](NC(=O)NCc2ccccc2)[C@@H]1O (relative stereo)
The melting point of the first is higher: 232 to 235 °C for the first, 202 to 204 °C for the second.

First: CCn1ccc(=O)c(O)c1C
Second: CCn1c(=O)c(C(=O)NC)c(O)c2ccc(C)nc21
The melting point of the first is higher: 204 to 205 °C for the first, 150 to 154 °C for the second.

Compared with `CCOC(=O)CCc1cccc(-c2c(CC(=O)Nc3ccc(F)cc3C(F)(F)F)c(=O)oc3cc(Cl)c(C)cc23)c1`, `O=c1c2ccc(OCC3CO3)cc2oc2ccc3cccc(O)c3c12` (stereo unspecified) is higher in melting point: 121 to 123 °C for the first, 191 to 193 °C for the second.

Compared with `CC(=NNc1ccc(C(F)(F)F)cc1)C(=O)NCc1ccc(Cl)nc1`, `CC1(CCN2C(=O)SC(=Cc3ccc(C(F)(F)F)cc3)C2=O)Cn2cc([N+](=O)[O-])nc2O1` (stereo unspecified) is higher in melting point: 184 °C for the first, 257 to 258 °C for the second.

`CNC(=O)c1ccc(N2CCNCC2)c(Cl)c1` and `O=C(O)c1cc(Cl)ccc1-n1cccc1` cannot be ordered by melting point: 176 to 189 °C for the first, 178 °C for the second.

Compared with `NC(=O)C1Cc2cc(F)ccc2N1` (stereo unspecified), `O=C(O)C1CSC(c2cc(Cl)ccc2OCCO[N+](=O)[O-])N1` (stereo unspecified) is lower in melting point: 197 to 199 °C for the first, 134 to 135 °C for the second.

First: CCCc1[nH]c2cc(C(=O)OC)ccc2c1C(=O)C=C(C)C
Second: CCCc1c(C(=O)OCC)sc(NC(=O)C(=O)OCC)c1[N+](=O)[O-]
The melting point of the first is higher: 146 to 147 °C for the first, 73 to 75 °C for the second.

First: C=CC(=O)OCCCOc1ccc(-c2ccc(C#N)cc2)cc1
Second: CCOc1ccc(/C=C(\NC(=O)c2ccc(OCC(C)C)cc2)C(=O)NCCO)cc1
The melting point of the first is lower: 70 °C for the first, 124 to 125 °C for the second.

Compared with `FC(F)(F)c1nc2ccnc(Cl)n2n1`, `C=CCn1c(CC)nc2nc3cc(Cl)ccc3nc21` is higher in melting point: 47 to 48 °C for the first, 117 to 121 °C for the second.

First: CCN1CCNC(=O)C1c1ccc(Nc2nc(-c3ccc(F)c(NC(=O)c4cc5c(s4)CCCC5)c3C)cn(C)c2=O)cc1 (stereo unspecified)
Second: C[C@@H]1S[C@@H](C(=O)Nc2ccc(CN3CCCC3)cc2)Cc2cc3c(cc2C1=O)OCO3
The melting point of the first is lower: 179 to 180 °C for the first, 186 to 188 °C for the second.

First: CC1CCC(C(C)C)C(OC(=O)C2(CC(N)=O)C(=O)N(Cc3ccc(Br)cc3F)C(=O)c3cccn32)C1 (stereo unspecified)
Second: CC(C)(CO)NC(=O)c1nn(-c2ccc(Br)cc2)c2c1C1CCC2C1 (stereo unspecified)
The melting point of the first is lower: 122 to 123 °C for the first, 184 to 186 °C for the second.

First: CCCCCCCCCCCCOCC(COCCCCCCCCCCCC)(CC(=O)O)CC(=O)O
Second: O=C(NCCCCCCCNC(=O)c1ccc(OC(Cl)(Cl)Cl)cc1)c1ccc(OC(Cl)(Cl)Cl)cc1
The melting point of the first is lower: 80 to 82 °C for the first, 152 to 153 °C for the second.

First: Clc1ccc(-c2[nH]c3c(Cl)cc(Cl)cc3c2Cl)cc1
Second: Cc1cc(Cl)ccc1-n1c(CF)nc2ccc(N)cc2c1=O
The melting point of the first is lower: 148 to 149 °C for the first, 191 to 193 °C for the second.

Compared with `CC1NN2C=CC=NC2C1C#N` (stereo unspecified), `COC1=CC(OC)OC(C)C1=O` (stereo unspecified) is lower in melting point: 170 to 172 °C for the first, 73 to 74.5 °C for the second.

Compared with `O=c1[nH]cnc2c1nc(CC1CCN(Cc3ccccc3)CC1)n2Cc1ccc(F)cc1`, `Cc1ccc(S(=O)(=O)N2CC3=C(C2)C(Cc2ccccc2)NCC3)cc1` (stereo unspecified) is lower in melting point: 197 °C for the first, 196 °C for the second.

First: Oc1ccc(-c2ncc3ncc(-c4ccncc4)cc3n2)cc1
Second: CCOC(=O)Nc1cscc1C(=O)OC
The melting point of the first is higher: greater than 268 °C for the first, 52 °C for the second.
